From patent US20260008783A1, “MODULATORS OF FSHR AND USES THEREOF” (Celmatix Inc., priority 2022, published 2026)
Several values for one entry are separate records, joined by “and”; a condition that tells them apart may be missing. Identical values can stand only once.

Molecular target: T1, Follicle Stimulating Hormone Receptor (FSHR) (Homo sapiens, UniProt P23945)
T1 construct: HA (N); expressed in transfected cells; host or cells: CHO-K1, transient transfection, pHM6 vector (CMV promoter)
T1 sequence (P23945 18-695): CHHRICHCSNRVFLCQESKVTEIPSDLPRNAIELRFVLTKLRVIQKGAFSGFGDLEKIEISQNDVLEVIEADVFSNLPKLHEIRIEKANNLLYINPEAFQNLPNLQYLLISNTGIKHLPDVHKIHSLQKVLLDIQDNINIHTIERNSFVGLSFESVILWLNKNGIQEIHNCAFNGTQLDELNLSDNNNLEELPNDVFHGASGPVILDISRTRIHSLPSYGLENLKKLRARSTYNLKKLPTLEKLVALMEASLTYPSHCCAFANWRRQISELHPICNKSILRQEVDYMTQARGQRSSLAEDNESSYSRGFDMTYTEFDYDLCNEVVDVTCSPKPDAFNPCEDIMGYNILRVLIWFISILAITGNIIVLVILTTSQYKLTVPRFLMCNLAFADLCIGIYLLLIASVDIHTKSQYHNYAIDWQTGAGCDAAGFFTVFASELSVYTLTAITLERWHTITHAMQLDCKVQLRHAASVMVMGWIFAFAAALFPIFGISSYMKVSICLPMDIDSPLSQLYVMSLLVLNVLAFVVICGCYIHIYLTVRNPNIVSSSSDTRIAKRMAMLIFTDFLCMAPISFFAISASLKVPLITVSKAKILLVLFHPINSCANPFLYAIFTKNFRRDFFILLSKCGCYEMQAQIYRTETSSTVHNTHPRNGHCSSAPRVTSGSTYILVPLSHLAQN
Test: HTRF cAMP agonist assay, FSHR, transiently transfected CHO-K1 cells
Assay type: cell-based
Conditions: CHO-K1 cells transiently expressing human FSHR, read-out: IC50 FSHR LANCE CAMP

Row | IC50 | Structure (SMILES)
1 | 34.9 nM | COc1cc2c(cc1-c1cncc(C(N)=O)c1)-c1c(c(C(=O)N3[C@@H](C)CNC[C@@H]3C)nn1-c1cc(Cl)cc(Cl)c1)CC2 [Compound 8-22]
2 | 457 nM | COc1cc2c(cc1-c1cncc(C(N)=O)c1)-c1c(c(C(=O)N3CCC4CNCCC43)nn1-c1cc(Cl)cc(Cl)c1)CC2 (stereo not drawn) [Compound 8-23, 5-[3-(2,3,3a,4,5,6,7,7a-octahydropyrrolo[3,2-c]pyridine-1-carbonyl)-1-(3,5-dichlorophenyl)-7-methoxy-4,5-dihydrobenzo[g]indazol-8-yl]pyridine-3-carboxamide]
3 | 928 nM | COc1cc2c(cc1-c1cncc(C(N)=O)c1)-c1c(c(C(=O)N3CCC4CN(C(=O)OC(C)(C)C)CCC43)nn1-c1cc(Cl)cc(Cl)c1)CC2 (stereo not drawn) [Compound 8-23A, tert-butyl 1-[8-(5-carbamoyl-3-pyridyl)-1-(3,5-dichlorophenyl)-7-methoxy-4,5-dihydrobenzo[g]indazole-3-carbonyl]-3,3a,4,6,7,7a-hexahydro-2H-pyrrolo[3,2-c]pyridine-5-carboxylate]
4 | 524 nM | COc1cc2c(cc1-c1cncc(C(N)=O)c1)-c1c(c(C(=O)N3CC4CCC3CN4)nn1-c1cc(Cl)cc(Cl)c1)CC2 (stereo not drawn) [Compound 8-24]
5 | 71.8 nM | COc1cc2c(cc1-c1cncc(C(N)=O)c1)-c1c(c(C(=O)N3CCNC[C@H]3C(C)C)nn1-c1cc(Cl)cc(Cl)c1)CC2 [Compound 8-25]
6 | 10.3 nM | COc1cc2c(cc1-c1cncc(C#N)c1)-c1c(c(C(=O)N3CCNC(=O)C3(C)C)nn1-c1cc(Cl)cc(Cl)c1)CC2 [Compound 8-26A]
7 | 16.3 nM | COc1cc2c(cc1-c1cncc(C(N)=O)c1)-c1c(c(C(=O)N3CCNC(=O)C3(C)C)nn1-c1cc(Cl)cc(Cl)c1)CC2 [Compound 8-26]
8 | 20.3 nM | COc1cc2c(cc1-c1cncc(C(N)=O)c1)-c1c(c(C(=O)N3CCNC(=O)C3(C)C)nn1-c1cc(Cl)cc(Cl)c1)CC2 [Compound 8-26b]
9 | 30 nM | COc1cc2c(cc1-c1cncc(C(N)=O)c1)-c1c(c(C(=O)N3CCCC34COC4)nn1-c1cc(Cl)cc(Cl)c1)CC2 [Compound 8-27]
10 | 2180 nM | COc1cc2c(cc1-c1cncc(C(N)=O)c1)-c1c(c(C(=O)N(C)C3CCN(C)C3)nn1-c1cc(Cl)cc(Cl)c1)CC2 (stereo not drawn) [Compound 8-28]
11 | 27.3 nM | COc1cc2c(cc1-c1cncc(C(N)=O)c1)-c1c(c(C(=O)N3C[C@@H]4C[C@H]3CO4)nn1-c1cc(Cl)cc(Cl)c1)CC2 [Compound 8-29]
12 | 1720 nM | COc1cc2c(cc1-c1cncc(C(N)=O)c1)-c1c(c(C(=O)N3CC[C@H]4CN(C)C[C@H]43)nn1-c1cc(Cl)cc(Cl)c1)CC2 [Compound 8-30]
13 | 145 nM | COc1cc2c(cc1-c1cncc(C(N)=O)c1)-c1c(c(C(=O)N3CCC4C3CCN4C(=O)OC(C)(C)C)nn1-c1cc(Cl)cc(Cl)c1)CC2 (stereo not drawn) [Compound 8-31A]
14 | 1760 nM | COc1cc2c(cc1-c1cncc(C(N)=O)c1)-c1c(c(C(=O)N3CCC4C3CCN4C)nn1-c1cc(Cl)cc(Cl)c1)CC2 (stereo not drawn) [Compound 8-31]
15 | 0.825 nM | COc1cc2c(cc1-c1cncc(C(N)=O)c1)-c1c(c(C(=O)N3COCC3(C)C)nn1-c1cc(Cl)cc(Cl)c1)CC2 [Compound 8-32]
16 | 105 nM | COc1cc2c(cc1-c1cncc(C(N)=O)c1)-c1c(c(C(=O)N3CC4CC3CN4C(=O)OC(C)(C)C)nn1-c1cc(Cl)cc(Cl)c1)CC2 (stereo not drawn) [Compound 8-33A]
17 | 441 nM | COc1cc2c(cc1-c1cncc(C(N)=O)c1)-c1c(c(C(=O)N3CC4CC3CN4)nn1-c1cc(Cl)cc(Cl)c1)CC2 (stereo not drawn) [Compound 8-33]
18 | 13.4 nM | CCN(C)C(=O)c1nn(-c2cc(Cl)cc(Cl)c2)c2c1CCc1cc(OC)c(-c3cncc(C(N)=O)c3)cc1-2 [Compound 8-34]
19 | 3.99 nM | CCN(CC)C(=O)c1nn(-c2cc(Cl)cc(Cl)c2)c2c1CCc1cc(OC)c(-c3cncc(C(N)=O)c3)cc1-2 [Compound 8-35]
20 | 4.17 nM | COc1cc2c(cc1-c1cncc(C(N)=O)c1)-c1c(c(C(=O)N(C)C(C)C)nn1-c1cc(Cl)cc(Cl)c1)CC2 [Compound 8-36]
21 | 48.4 nM | COc1cc2c(cc1-c1cncc(C(N)=O)c1)-c1c(c(C(=O)N3CCCC3)nn1-c1cc(Cl)cc(Cl)c1)CC2 [Compound 8-37]
22 | 9.16 nM | COc1cc2c(cc1-c1cncc(C(N)=O)c1)-c1c(c(C(=O)N3CCCC3C)nn1-c1cc(Cl)cc(Cl)c1)CC2 (stereo not drawn) [Compound 8-38]
23 | 15.5 nM | COc1cc2c(cc1-c1cncc(C(N)=O)c1)-c1c(c(C(=O)N(C)C3CC3)nn1-c1cc(Cl)cc(Cl)c1)CC2 [Compound 8-39]

Row | IC50 | Structure (SMILES)
24 | 1.8 nM and 2.46 nM | CCN(C(=O)c1nn(-c2cc(Cl)cc(Cl)c2)c2c1CCc1cc(OC)c(-c3cncc(C(N)=O)c3)cc1-2)C(C)(C)C [Compound 8-41]
25 | 6.76 nM | COc1cc2c(cc1-c1cncc(C(N)=O)c1)-c1c(c(C(=O)N(C)C(C)C3CC3)nn1-c1cc(Cl)cc(Cl)c1)CC2 (stereo not drawn) [Compound 8-42]
26 | 2.59 nM | COc1cc2c(cc1-c1cncc(C(N)=O)c1)-c1c(c(C(=O)N3CCOC[C@@H]3C)nn1-c1cc(Cl)cc(Cl)c1)CC2 [Compound 8-43]
27 | 2.04 nM | CC[C@H]1COCCN1C(=O)c1nn(-c2cc(Cl)cc(Cl)c2)c2c1CCc1cc(OC)c(-c3cncc(C(N)=O)c3)cc1-2 [Compound 8-44]
28 | 17.4 nM | COc1cc2c(cc1-c1cncc(C(N)=O)c1)-c1c(c(C(=O)N3CCC[C@H]3C)nn1-c1cc(Cl)cc(Cl)c1)CC2 [Compound 8-45]
29 | 177 nM | COc1cc2c(cc1-c1cncc(C(N)=O)c1)-c1c(c(C(=O)N(C)C3CCS(=O)(=O)C3)nn1-c1cc(Cl)cc(Cl)c1)CC2 (stereo not drawn) [Compound 8-46]
30 | 29.3 nM | COc1cc2c(cc1-c1cncc(C(N)=O)c1)-c1c(c(C(=O)N(C)C3CCCC3)nn1-c1cc(Cl)cc(Cl)c1)CC2 [Compound 8-47]
31 | 2.4 nM | COc1cc2c(cc1-c1cncc(C(N)=O)c1)-c1c(c(C(=O)N3[C@H](C)COC[C@@H]3C)nn1-c1cc(Cl)cc(Cl)c1)CC2 [Compound 8-49]
32 | 3.43 nM | COc1cc2c(cc1-c1cncc(C(N)=O)c1)-c1c(c(C(=O)N3[C@@H](C)COC[C@@H]3C)nn1-c1cc(Cl)cc(Cl)c1)CC2 [Compound 8-50]
33 | 3.06 nM | COc1cc2c(cc1-c1cncc(C(N)=O)c1)-c1c(c(C(=O)N3CCOC3(C)C)nn1-c1cc(Cl)cc(Cl)c1)CC2 [Compound 8-51, 5-(1-(3,5-dichlorophenyl)-3-(2,2-dimethyloxazolidine-3-carbonyl)-7-methoxy-4,5-dihydro-1H-benzo[g]indazol-8-yl)nicotinamide]
34 | 39.3 nM | COc1cc2c(cc1-c1cncc(C(N)=O)c1)-c1c(c(C(=O)NC(C)(C)CO)nn1-c1cc(Cl)cc(Cl)c1)CC2 [Compound 8-52A]
35 | 222 nM | COc1cc2c(cc1-c1cncc(C(N)=O)c1)-c1c(c(C(=O)NC(C)CO)nn1-c1cc(Cl)cc(Cl)c1)CC2 (stereo not drawn) [Compound 8-54A]
36 | 6.56 nM | COc1cc2c(cc1-c1cncc(C(N)=O)c1)-c1c(c(C(=O)N(C)CC(F)(F)F)nn1-c1cc(Cl)cc(Cl)c1)CC2 [Compound 8-55]
37 | 61.3 nM | COc1cc2c(cc1-c1cncc(C(N)=O)c1)-c1c(c(C(=O)N(CC(F)(F)F)CC(F)(F)F)nn1-c1cc(Cl)cc(Cl)c1)CC2 [Compound 8-56]
38 | 3.89 nM | COc1cc2c(cc1-c1cncc(C(N)=O)c1)-c1c(c(C(=O)N3CCNC[C@H]3C(F)(F)F)nn1-c1cc(Cl)cc(Cl)c1)CC2 [Compound 8-57, 5-[1-(3,5-dichlorophenyl)-7-methoxy-3-[(2S)-2-(trifluoromethyl)piperazine-1-carbonyl]-4,5-dihydrobenzo[g]indazol-8-yl]pyridine-3-carboxamide]
39 | 102 nM | COc1cc2c(cc1-c1cncc(C(N)=O)c1)-c1c(c(C(=O)N3CCN(CC(F)(F)F)CC3(C)C)nn1-c1cc(Cl)cc(Cl)c1)CC2 [Compound 8-58, 5-(1-(3,5-dichlorophenyl)-3-(2,2-dimethyl-4-(2,2,2-trifluoroethyl)piperazine-1-carbonyl)-7-methoxy-4,5-dihydro-1H-benzo[g]indazol-8-yl)nicotinamide]
40 | 38.9 nM | CCN1CCN(C(=O)c2nn(-c3cc(Cl)cc(Cl)c3)c3c2CCc2cc(OC)c(-c4cncc(C(N)=O)c4)cc2-3)C(C)(C)C1 [Compound 8-60]
41 | 192 nM | COc1cc2c(cc1-c1cncc(C(N)=O)c1)-c1c(c(C(=O)N3CCN(C(C)C)CC3(C)C)nn1-c1cc(Cl)cc(Cl)c1)CC2 [Compound 8-61, 5-(1-(3,5-dichlorophenyl)-3-(4-isopropyl-2,2-dimethylpiperazine-1-carbonyl)-7-methoxy-4,5-dihydro-1H-benzo[g]indazol-8-yl)nicotinamide]
42 | 122 nM | COc1cc2c(cc1-c1cncc(C(N)=O)c1)-c1c(c(C(=O)N3CCN(C4CC4)CC3(C)C)nn1-c1cc(Cl)cc(Cl)c1)CC2 [Compound 8-62]
43 | 120 nM | CCCN1CCN(C(=O)c2nn(-c3cc(Cl)cc(Cl)c3)c3c2CCc2cc(OC)c(-c4cncc(C(N)=O)c4)cc2-3)C(C)(C)C1 [Compound 8-63]
44 | 3400 nM | COc1cc2c(cc1-c1cncc(C(N)=O)c1)-c1c(c(C(=O)N3CCN(CC(=O)O)CC3(C)C)nn1-c1cc(Cl)cc(Cl)c1)CC2 [Compound 8-64]
45 | 1320 nM | COc1cc2c(cc1-c1cncc(C(N)=O)c1)-c1c(c(C(=O)N3CCN(CCC(=O)O)CC3(C)C)nn1-c1cc(Cl)cc(Cl)c1)CC2 [Compound 8-65]
